A short description of the test: Biochemical Assay: Test compounds were placed in a Greiner Bio-One (Monroe, N.C.) 1536-well black solid bottom assay plate. 200 millimolar (mM) Tris HCl, pH 7.4, 100 micromolar (μM) EDTA and 0.01% TWEEN-20™, final concentration, was used as the assay buffer. The LDHA reagent was 2 nanomolar (nM) Human LDHA (Meridian Life Science, Inc., Memphis, Tenn.), final concentration, in assay buffer.

Molecules are shown by their SMILES. A value given as a limit tells only on which side of the number the result lay.

`NS(=O)(=O)c1ccc(Cc2c(-c3ccc(F)c(C(F)(F)F)c3)nn(-c3nc(C(=O)O)cs3)c2CC2CC2)cc1F` displayed an IC50 of less than 100 nM.

The IC50 is the concentration that inhibits the measured activity by half. The low end stands for inhibition by little substance, the high end for a need for much substance.
